Experimental data reported in patent US20260042731A1, “(2,4-DICHLOROPHENOXY)ACETIC ACID ANALOGS” (CORTEVA AGRISCIENCE LLC, priority 2022, published 2026).
Read-outs that look alike come from different tables or passages of the source.

Key:
[1] = test system: Amaranthus rudis (AMATA), tall water hemp; experiment: Postemergence herbicide evaluation, growth of Amaranthus rudis (AMATA); assay type: in vivo; conditions: Amaranthus tuberculatus, post-emergence, percent reduction in plant size vs untreated control, read-out: Ave. AMATA; for pest or weed control at 280 g/ha: 280 g ae/ha; for pest or weed control at 560 g/ha: 560 g ae/ha
[2] = test system: Ambrosia artemisiifolia (AMBEL), common ragweed; experiment: Postemergence herbicide evaluation, growth of Ambrosia artemisiifolia (AMBEL); assay type: in vivo; conditions: Ambrosia artemisiifolia, post-emergence, percent reduction in plant size vs untreated control, read-out: AVE. AMBEL; for pest or weed control at 280 g/ha: 280 g ae/ha; for pest or weed control at 560 g/ha: 560 g ae/ha
[3] = test system: Abutilon theophrasti (ABUTH), velvetleaf; experiment: Postemergence herbicide evaluation, growth of Abutilon theophrasti (ABUTH); assay type: in vivo; conditions: Abutilon theophrasti, post-emergence, percent reduction in plant size vs untreated control, read-out: AVE. ABUTH; for pest or weed control at 280 g/ha: 280 g ae/ha; for pest or weed control at 560 g/ha: 560 g ae/ha
[4] = test system: Chenopodium album (CHEAL), common lambsquarters; experiment: Postemergence herbicide evaluation, growth of Chenopodium album (CHEAL); assay type: in vivo; conditions: Chenopodium album, post-emergence, percent reduction in plant size vs untreated control, read-out: Ave. CHEAL; for pest or weed control at 280 g/ha: 280 g ae/ha; for pest or weed control at 560 g/ha: 560 g ae/ha
[5] = test system: glyphosate resistant Conyza canadensis (L.) (ERICA), horseweed; experiment: Postemergence herbicide evaluation, growth of Conyza canadensis (ERICA); assay type: in vivo; conditions: Erigeron canadensis, post-emergence, percent reduction in plant size vs untreated control, read-out: Ave. ERICA; for pest or weed control at 280 g/ha: 280 g ae/ha; for pest or weed control at 560 g/ha: 560 g ae/ha
[6] = Volatility of compounds measured by thermogravimetric analysis (TGA); assay type: physicochemical
[7] = test system: weeds ABUTH, AMATA, AMBEL, CHEAL, ERICA; experiment: Postemergence herbicide evaluation, overall average % weed control across ABUTH, AMATA, AMBEL, CHEAL and ERICA; assay type: in vivo; conditions: post-emergence, average over five weeds, read-out: Overall Ave % Weed Control; for pest or weed control at 280 g/ha: 280 g ae/ha; for pest or weed control at 560 g/ha: 560 g ae/ha

Row | Structure (SMILES) | pest or weed control at 280 g/ha ([1]; 168 h, 7 DAA) [%] | pest or weed control at 560 g/ha ([1]; 168 h, 7 DAA) [%] | pest or weed control at 280 g/ha ([1]; 336 h, 14 DAA) [%] | pest or weed control at 560 g/ha ([1]; 336 h, 14 DAA) [%] | pest or weed control at 280 g/ha ([1]; 504 h, 21 DAA) [%] | pest or weed control at 560 g/ha ([1]; 504 h, 21 DAA) [%] | pest or weed control at 280 g/ha ([2]; 168 h, 7 DAA) [%] | pest or weed control at 560 g/ha ([2]; 168 h, 7 DAA) [%] | pest or weed control at 280 g/ha ([2]; 336 h, 14 DAA) [%] | pest or weed control at 560 g/ha ([2]; 336 h, 14 DAA) [%] | pest or weed control at 280 g/ha ([2]; 504 h, 21 DAA) [%] | pest or weed control at 560 g/ha ([2]; 504 h, 21 DAA) [%] | pest or weed control at 280 g/ha ([3]; 168 h, 7 DAA) [%] | pest or weed control at 560 g/ha ([3]; 168 h, 7 DAA) [%] | pest or weed control at 280 g/ha ([3]; 336 h, 14 DAA) [%] | pest or weed control at 560 g/ha ([3]; 336 h, 14 DAA) [%] | pest or weed control at 280 g/ha ([3]; 504 h, 21 DAA) [%] | pest or weed control at 560 g/ha ([3]; 504 h, 21 DAA) [%] | pest or weed control at 280 g/ha ([4]; 168 h, 7 DAA) [%] | pest or weed control at 560 g/ha ([4]; 168 h, 7 DAA) [%] | other results
1 | O=C(COc1ccc(Cl)cc1Cl)Nc1ccccn1 [Compound D28] | 80 | 98 | 96 | 87.5 | 81.5 | 100 | 75 | 85 | 90 | 100 | 100 | 100 | 77.5 | 72.5 | 96.5 | 97.5 | 100 | 100 | 80 | 77.5 | pest or weed control at 280 g/ha ([4]; 336 h, 14 DAA): 97%; pest or weed control at 560 g/ha ([4]; 336 h, 14 DAA): 96.5%; pest or weed control at 280 g/ha ([4]; 504 h, 21 DAA): 100%; pest or weed control at 560 g/ha ([4]; 504 h, 21 DAA): 96.5%; pest or weed control at 280 g/ha ([5]; 168 h, 7 DAA): 82.5%; pest or weed control at 560 g/ha ([5]; 168 h, 7 DAA): 82.5%; pest or weed control at 280 g/ha ([5]; 336 h, 14 DAA): 99.5%; pest or weed control at 560 g/ha ([5]; 336 h, 14 DAA): 97.5%; pest or weed control at 280 g/ha ([5]; 504 h, 21 DAA): 99.5%; pest or weed control at 560 g/ha ([5]; 504 h, 21 DAA): 98.5%; TGA Data (rate of weight loss, volatility) [6]: 0.06 µg/min; pest or weed control at 280 g/ha ([7]; 168 h, 7 DAA): 79%; pest or weed control at 560 g/ha ([7]; 168 h, 7 DAA): 83.1%; pest or weed control at 280 g/ha ([7]; 336 h, 14 DAA): 95.8%; pest or weed control at 560 g/ha ([7]; 336 h, 14 DAA): 95.8%; pest or weed control at 280 g/ha ([7]; 504 h, 21 DAA): 96.2%; pest or weed control at 560 g/ha ([7]; 504 h, 21 DAA): 99%
2 | C=CCONC(=O)COc1ccc(Cl)cc1Cl [Compound D33] | 92.5 | 92 | 92.5 | 92.5 | 95 | 92.5 | 86 | 80 | 96 | 90 | 100 | 100 | 85 | 92.5 | 98.5 | 99.5 | 100 | 100 | 82.5 | 46.5 | pest or weed control at 280 g/ha ([4]; 336 h, 14 DAA): 98%; pest or weed control at 560 g/ha ([4]; 336 h, 14 DAA): 92.5%; pest or weed control at 280 g/ha ([4]; 504 h, 21 DAA): 96.5%; pest or weed control at 560 g/ha ([4]; 504 h, 21 DAA): 99%; pest or weed control at 280 g/ha ([5]; 168 h, 7 DAA): 82.5%; pest or weed control at 560 g/ha ([5]; 168 h, 7 DAA): 77.5%; pest or weed control at 280 g/ha ([5]; 336 h, 14 DAA): 99.5%; pest or weed control at 560 g/ha ([5]; 336 h, 14 DAA): 100%; pest or weed control at 280 g/ha ([5]; 504 h, 21 DAA): 99.5%; pest or weed control at 560 g/ha ([5]; 504 h, 21 DAA): 97.5%; TGA Data (rate of weight loss, volatility) [6]: 0.34 µg/min; pest or weed control at 280 g/ha ([7]; 168 h, 7 DAA): 85.7%; pest or weed control at 560 g/ha ([7]; 168 h, 7 DAA): 77.7%; pest or weed control at 280 g/ha ([7]; 336 h, 14 DAA): 96.9%; pest or weed control at 560 g/ha ([7]; 336 h, 14 DAA): 94.9%; pest or weed control at 280 g/ha ([7]; 504 h, 21 DAA): 98.2%; pest or weed control at 560 g/ha ([7]; 504 h, 21 DAA): 97.8%
